In PMC6017732, “Identification and Characterizations of Novel, Selective Histone Methyltransferase SET7 Inhibitors by Scaffold Hopping- and 2D-Molecular Fingerprint-Based Similarity Search” (Molecules : A Journal of Synthetic Chemistry and Natural …, 2018):
Where two headings read alike, the source gives them in different places.

Key:
SET7 [1] = biological target: T1, SET7 (Homo sapiens, UniProt Q8WTS6); assay: AlphaLISA SET7 inhibition assay; format: biochemical; conditions: for IC50: SET7; for inhibition at 100 µM: read-out: Inhibition Ratio at 100 μM/%
T1 sequence (Q8WTS6 1-366): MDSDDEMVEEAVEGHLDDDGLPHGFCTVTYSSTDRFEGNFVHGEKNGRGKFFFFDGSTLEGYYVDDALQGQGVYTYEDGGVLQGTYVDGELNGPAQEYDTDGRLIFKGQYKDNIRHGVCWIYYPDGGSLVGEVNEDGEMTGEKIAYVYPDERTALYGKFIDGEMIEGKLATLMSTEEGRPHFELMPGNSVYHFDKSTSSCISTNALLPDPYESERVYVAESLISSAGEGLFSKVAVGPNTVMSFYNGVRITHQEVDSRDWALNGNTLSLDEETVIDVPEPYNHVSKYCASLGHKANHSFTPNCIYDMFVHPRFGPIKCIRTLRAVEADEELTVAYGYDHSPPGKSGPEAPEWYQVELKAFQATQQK
Experimental: AlphaLISA assays were applied to determine the inhibitory activity targeting SET7. The purified SET7 protein was incubated in modified Tris buffer in 384-well plates (Perkin Elmer, Cat. No. 6007299, Waltham, MA, USA) at room temperature for 15 min. The compounds were transferred to the assay plate using Echo in 100% DMSO, and substrate solution was added to each well to start the reaction. Acceptor and donor beads were added and incubated for 60 min at room temperature, shielded from light. The endpoint was evaluated with EndSpire in Alpha mode. The experimental data was fitted in GraphPad Prism 5 to obtain inhibition values using the equation as follows:(1) Inhibition %= Max−Siginal/Max−Min×100%

SET7 [2] = biological target: T1, SET7; assay: 3H-labeled radioisotope methylation assay; format: biochemical; conditions: 3H radioactive methylation assay
Experimental: As for ^3Hradioactive methylation assay, SAH was used as the reference compound and the compounds were tested in 10 concentrations in duplicate in modified Tris buffer (1× assay buffer). The following materials were purchased: SET7 (Enzo, Cat. No. ALX-201-178, New York, NY, USA), [^3H]-SAM (PerkinElmer Inc., Lot. No. 1790854), SAH (Sigma, Cat. No. A9384-25MG, St. Louis, MO, USA) and 384-well Flashplate (Perkin Elmer, Cat. No. SMP410A001PK,). The compounds were transferred to the assay plate by Echo 550 with 3-fold dilution in 100% DMSO where the final DMSO concentration is 1%. Then the enzyme solution was transferred to the assay plate and 1× assay buffer was transferred for low control. After 15 min incubation at room temperature, peptide and [^3H]-SAM mix solution was transferred to each well to start the reaction. The cold SAM in 1× buffer was added to each well to stop the reaction after 60 min incubation at room temperature. 25 μL of the whole reaction system per well was transferred to Flashplate which was washed with dH2O and 0.1% Tween-20 for three times after 60 min incubation. The data was read on Microbeta. All the inhibition assays are performed in duplicate.

[3] = system: MCF7 (breast cancer) cells; assay: Cell viability assay (alamarBlue / MTT), MCF7; format: cell-based; conditions: Homo sapiens, MCF7, 72 h, MCF7, approximately 72 h
Experimental: (§1) MCF7, HL60, MV4-11, K562, Kasumi-1, U937, THP1, and Jurkat cell lines were purchased from American Type Culture Collection (Manassas, VA, USA). Fetal bovine serum was purchased from Life Technologies. MCF7 cells were cultured in DMEM medium supplemented with 10% fetal bovine serum at 37 °C in an incubator with 5% CO2 atmosphere. HL60 and MV4-11 cells were cultured in 1640 medium supplemented with 10% fetal bovine serum. K562, Kasumi-1 and HL60 were cultured in 96 plate at 10,000/well for 2 h. DC-S285 was dissolved in DMSO (Sigma) and then stored at 4 °C. The cells were incubated with DC-S285 at different concentrations ranging from 0 to 100 µM for approximately 72 h. The activities of […] against MCF7, HL60, MV4-11, K562, Kasumi-1, U937, THP1, and Jurkat were measured by the alamarBlue assays and MTT assays.

[4] = system: Jurkat leukemia cell line; assay: Cell viability assay (alamarBlue / MTT), Jurkat; format: cell-based; conditions: Homo sapiens, 72 h, approximately 72 h
Experimental: as §1

THP1 leukemia cell line = assay: Cell viability assay (alamarBlue / MTT), THP1; format: cell-based; conditions: Homo sapiens, THP-1, 72 h, THP1, approximately 72 h
Experimental: as §1

U937 leukemia cell line = assay: Cell viability assay (alamarBlue / MTT), U937; format: cell-based; conditions: Homo sapiens, U-937, 72 h, U937, approximately 72 h
Experimental: as §1

SET7 [5] = biological target: T2, SET7 (Homo sapiens, UniProt Q8WTS6); assay: Ligand observed T1rho (CPMG) NMR experiment; format: binding; conditions: 20 μM compound, 2.5 μM SET7
T2 sequence (Q8WTS6 117-366 limits assumed): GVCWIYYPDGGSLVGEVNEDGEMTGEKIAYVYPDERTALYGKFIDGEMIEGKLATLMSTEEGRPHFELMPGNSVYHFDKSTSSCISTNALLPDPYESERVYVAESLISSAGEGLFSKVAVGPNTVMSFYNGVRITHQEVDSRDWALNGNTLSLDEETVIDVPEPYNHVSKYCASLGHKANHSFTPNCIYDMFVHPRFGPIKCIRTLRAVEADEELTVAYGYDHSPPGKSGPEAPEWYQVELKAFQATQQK
Experimental: Ligand observed T1ρ NMR experiment were applied to investigate ligand-protein interactions. All NMR spectra were acquired at 25 °C on a 600 MHz Bruker Avance III spectrometer equipped with a cryogenically cooled probe (Bruker Biospin, Ettlingen, Germany). Samples containing 20 μM DC-S285, and 20 μM DC-S285 in the presence of 2.5 μM SET7 were dissolved in Tris-HCl buffer (50 mM Tris-HCl, 100 mM NaCl, pH 7.4, 5% DMSO, 95% D2O) and then used in NMR data acquisition. T1ρ spectra were recorded by using the pulse sequence of solvent-suppressed ^1D ^1H CPMG (cpmgPr1d). The 90° pulse length was adjusted to about 11.80 μs. A total of four dummy scans and 64 free induction decays (FIDs) were collected into 64 K acquisition points, covering a spectral width of 12 kHz (20 ppm) and giving an acquisition time (ACQ) of 2.73 s. STD data was acquired using 4 dummy scans and a relaxation delay of 3 s, followed by a 40 dB pulsed irradiation at frequency of −1.0 ppm or 33 ppm alternatively. The total acquisition time for STD spectrum was 23 min with 128 FIDs.

SETD1B = biological target: T3, SETD1B (Homo sapiens, UniProt Q9UPS6); assay: Enzymatic selectivity assay SETD1B (Alpha mode); format: biochemical; conditions: read-out: Inhibition Ratio at 100 μM/%
T3 construct: purchased Active Motif M1083
Experimental: (§2) For SETD1B, G9a and SMYD2, the activities against those targets were tested in modified Tris buffer (1× assay buffer). All the solid compounds were dissolved to 20 mM in 100% DMSO. The materials used were SETD1B (Active Motif, Cat. No. M1083, Carlsbad, CA, USA), G9a (BPS, Cat. No. 51001, San Diego, CA, USA), […] and 384-well plate (Perkin Elmer, Cat. No. 6007299). Both the enzyme solution and the substrate solution were prepared in 1× assay buffer enzyme solution or 1× assay buffer for low control was transferred to the assay plate. Then substrate mix solution was added to each well to start the solution for 15 min incubation at room temperature. For SETD1B, G9a, the incubation time was adjusted to 60 min and for SMYD2, the incubation time was set to 240 min. For detection, acceptor and donor beads were added and incubated for 60 min at room temperature, shielded from light. The endpoint was evaluated with EnSpire in Alpha mode.

SETD8 = biological target: T4, SETD8 (Homo sapiens, UniProt Q9NQR1); assay: Radioactive methylation inhibition assay of SETD8; format: biochemical; conditions: SETD8, 100 μM; read-out: Inhibition Ratio at 100 μM/%
T4 sequence (Q9NQR1 1-393): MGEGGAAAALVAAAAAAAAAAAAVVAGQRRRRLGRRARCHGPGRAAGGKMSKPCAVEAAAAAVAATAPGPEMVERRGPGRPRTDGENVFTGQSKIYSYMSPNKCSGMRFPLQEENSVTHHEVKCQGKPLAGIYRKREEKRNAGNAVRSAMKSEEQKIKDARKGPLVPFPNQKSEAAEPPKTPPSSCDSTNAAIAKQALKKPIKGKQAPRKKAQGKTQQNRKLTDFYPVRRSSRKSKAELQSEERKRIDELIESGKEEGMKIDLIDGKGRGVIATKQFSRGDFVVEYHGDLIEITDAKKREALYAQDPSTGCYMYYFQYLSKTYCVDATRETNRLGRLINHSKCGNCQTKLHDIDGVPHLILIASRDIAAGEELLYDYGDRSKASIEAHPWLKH
Experimental: The radioactive methylation inhibition assay of SETD8 was performed in modified Tris buffer. […] and [^3H]-SAM (PerkinElmer, Cat No. NET1551MC) were added in 1x buffer as the substrate solution. The enzyme solution was incubated at room temperature for 15 min before substrate solution was added to each well to start the reaction. Cold SAM (Sigma, Cat. No. 7007-100MG) was added in 1x buffer to prepare the stop mix, and was added to stop the reaction; finally 10 μL of the reaction system was transferred to flashplate (PerkinElmer Inc., Cat. No. SMP410A001PK) and incubated at room temperature for a minimum of 2 h. The plate was washed three times with dH2O and 0.1% Tween-20, and the radioactivity signal was detected by liquid scintillation counting (MicroBeta, PerkinElmer). SAH was used as the reference compound.

G9a = biological target: T5, G9a (Homo sapiens, UniProt Q96KQ7); assay: Enzymatic selectivity assay G9a (Alpha mode); format: biochemical; conditions: read-out: Inhibition Ratio at 100 μM/%
T5 construct: purchased BPS 51001
T5 sequence (Q96KQ7 785-1210 limits assumed): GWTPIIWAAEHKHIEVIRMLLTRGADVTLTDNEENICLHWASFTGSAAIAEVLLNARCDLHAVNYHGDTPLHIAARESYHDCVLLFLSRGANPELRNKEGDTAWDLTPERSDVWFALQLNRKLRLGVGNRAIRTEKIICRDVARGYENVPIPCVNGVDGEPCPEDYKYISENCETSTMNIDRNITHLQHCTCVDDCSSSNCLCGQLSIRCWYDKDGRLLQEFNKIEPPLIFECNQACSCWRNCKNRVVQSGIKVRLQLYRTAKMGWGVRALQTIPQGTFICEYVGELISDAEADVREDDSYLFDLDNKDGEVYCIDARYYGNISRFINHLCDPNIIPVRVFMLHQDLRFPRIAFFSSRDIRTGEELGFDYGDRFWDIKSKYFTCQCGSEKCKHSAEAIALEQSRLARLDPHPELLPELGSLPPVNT
Experimental: as §2

SMYD2 = biological target: T6, SMYD2 (Homo sapiens, UniProt Q9NRG4); assay: Enzymatic selectivity assay SMYD2 (Alpha mode); format: biochemical; conditions: SMYD2, 100 μM; read-out: Inhibition Ratio at 100 μM/%
T6 construct: purchased Active Motif 31323
T6 sequence (Q9NRG4 whole entry): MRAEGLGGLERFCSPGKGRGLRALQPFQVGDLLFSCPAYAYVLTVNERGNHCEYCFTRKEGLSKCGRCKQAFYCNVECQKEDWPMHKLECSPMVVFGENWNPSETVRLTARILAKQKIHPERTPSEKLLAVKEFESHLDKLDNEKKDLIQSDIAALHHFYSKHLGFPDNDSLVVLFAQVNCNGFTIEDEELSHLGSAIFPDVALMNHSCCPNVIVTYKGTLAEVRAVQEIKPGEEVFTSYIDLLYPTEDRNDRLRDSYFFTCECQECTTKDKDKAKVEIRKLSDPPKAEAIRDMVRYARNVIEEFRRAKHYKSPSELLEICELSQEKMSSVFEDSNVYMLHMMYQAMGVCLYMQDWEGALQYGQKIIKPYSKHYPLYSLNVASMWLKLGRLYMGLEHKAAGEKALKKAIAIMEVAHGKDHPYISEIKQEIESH
Experimental: as §2

EZH2 = EZH2 (Homo sapiens, UniProt Q15910); assay: Radioactive methylation inhibition assay of EZH2; format: biochemical; conditions: EZH2, 100 μM
EZH2, sequence (Q15910 whole entry, species assumed): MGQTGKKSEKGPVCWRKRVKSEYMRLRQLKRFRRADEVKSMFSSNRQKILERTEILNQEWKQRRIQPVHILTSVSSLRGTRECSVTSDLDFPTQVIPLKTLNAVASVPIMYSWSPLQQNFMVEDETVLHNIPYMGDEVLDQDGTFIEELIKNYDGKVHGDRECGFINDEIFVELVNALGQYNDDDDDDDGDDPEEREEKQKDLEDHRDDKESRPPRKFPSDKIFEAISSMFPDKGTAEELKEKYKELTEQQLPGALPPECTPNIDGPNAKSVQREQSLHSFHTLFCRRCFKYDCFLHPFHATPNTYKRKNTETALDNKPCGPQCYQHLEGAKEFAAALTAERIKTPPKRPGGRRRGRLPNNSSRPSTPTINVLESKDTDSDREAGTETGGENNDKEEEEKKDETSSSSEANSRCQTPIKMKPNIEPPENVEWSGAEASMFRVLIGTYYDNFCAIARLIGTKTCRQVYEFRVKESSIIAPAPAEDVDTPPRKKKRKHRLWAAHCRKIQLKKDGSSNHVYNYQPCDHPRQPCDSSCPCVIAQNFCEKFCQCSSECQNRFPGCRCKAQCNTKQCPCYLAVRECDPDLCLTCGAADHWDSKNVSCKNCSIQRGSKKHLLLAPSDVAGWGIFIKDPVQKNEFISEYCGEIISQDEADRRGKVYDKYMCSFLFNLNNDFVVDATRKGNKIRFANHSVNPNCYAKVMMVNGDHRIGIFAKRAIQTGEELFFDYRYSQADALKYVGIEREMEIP
EZH2, sequence (O75530 whole entry partner, species assumed): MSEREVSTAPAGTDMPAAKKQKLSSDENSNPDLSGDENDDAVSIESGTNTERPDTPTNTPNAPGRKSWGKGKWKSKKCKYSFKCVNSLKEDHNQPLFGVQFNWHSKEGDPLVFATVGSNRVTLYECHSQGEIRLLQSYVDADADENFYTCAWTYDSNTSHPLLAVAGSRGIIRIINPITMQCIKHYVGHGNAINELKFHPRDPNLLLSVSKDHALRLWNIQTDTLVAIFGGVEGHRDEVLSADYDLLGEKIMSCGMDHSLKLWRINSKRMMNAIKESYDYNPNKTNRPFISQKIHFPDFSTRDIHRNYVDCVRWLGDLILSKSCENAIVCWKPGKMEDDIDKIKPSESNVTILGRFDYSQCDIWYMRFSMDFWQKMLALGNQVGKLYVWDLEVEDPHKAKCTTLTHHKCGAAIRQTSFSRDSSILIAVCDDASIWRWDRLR
EZH2, sequence (Q15022 whole entry partner, species assumed): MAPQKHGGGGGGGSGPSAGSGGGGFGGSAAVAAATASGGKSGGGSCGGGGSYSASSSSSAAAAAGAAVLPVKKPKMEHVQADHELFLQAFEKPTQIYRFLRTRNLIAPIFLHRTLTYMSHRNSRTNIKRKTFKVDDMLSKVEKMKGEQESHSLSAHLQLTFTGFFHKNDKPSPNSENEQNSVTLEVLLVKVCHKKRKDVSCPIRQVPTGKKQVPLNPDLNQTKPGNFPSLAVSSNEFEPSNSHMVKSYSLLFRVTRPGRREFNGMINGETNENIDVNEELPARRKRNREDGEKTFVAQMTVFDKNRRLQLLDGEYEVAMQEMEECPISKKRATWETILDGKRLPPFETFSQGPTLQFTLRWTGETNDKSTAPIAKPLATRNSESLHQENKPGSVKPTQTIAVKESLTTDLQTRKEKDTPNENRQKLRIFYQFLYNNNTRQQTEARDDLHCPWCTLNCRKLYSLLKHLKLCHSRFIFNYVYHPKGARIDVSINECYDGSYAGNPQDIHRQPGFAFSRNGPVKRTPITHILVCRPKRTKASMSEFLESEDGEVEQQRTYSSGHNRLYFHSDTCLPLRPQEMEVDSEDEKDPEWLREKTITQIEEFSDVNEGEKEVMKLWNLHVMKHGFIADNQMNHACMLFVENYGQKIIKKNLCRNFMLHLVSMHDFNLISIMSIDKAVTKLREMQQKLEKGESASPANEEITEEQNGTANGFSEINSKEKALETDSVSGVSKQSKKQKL
Experimental: The radioactive methylation inhibition assay of EZH2 was performed in modified Tris buffer. H3K27me peptide and [^3H]-SAM (Perkin Elmer Inc. Waltham, MA, USA, Lot. No. 1731619) were added in 1x buffer as the substrate solution. The […] solution was incubated at room temperature for 15 min before substrate solution was added to each well to start the reaction. Cold SAM (Sigma, Cat. NO. 7007) was added in 1× buffer to prepare stop mix (final concentration 0.5 mM), and was added to stop the reaction; finally 25 μL of the reaction system was transferred to a FlashPlate (Perkin Elmer, Cat. No. SMP410A001PK) and incubated at room temperature for a minimum of 1 h. The plate was washed three times with dH2O and 0.1% Tween-20, and the radioactivity was determined by liquid scintillation counting (MicroBeta). GSK-126 was used as the reference compound.

SMILES	IC50 (SET7 [1]; AlphaLISA assay) [µM]	IC50 (SET7 [2]) [µM]	IC50 [3] [µM]	IC50 [4] [µM]	IC50 (THP1 leukemia cell line) [µM]	IC50 (U937 leukemia cell line) [µM]	binding to SET7 in T1ρ (CPMG) NMR (SET7 [5])	inhibition at 100 µM (SET7 [1]; AlphaLISA assay, SET7, 100 μM) [%]	inhibition at 100 µM (SET7 [1]; SETD7, 100 μM, selectivity panel (Table 3)) [%]	inhibition at 100 µM (SETD1B) [%]	inhibition at 100 µM (SETD8) [%]	inhibition at 100 µM (G9a) [%]	inhibition at 100 µM (SMYD2) [%]	Inhibition Ratio at 100 μM/% (EZH2) [%]
COc1ccc(C(=O)N/N=C/c2ccc([N+](=O)[O-])cc2)cc1Br [DC-S285]	9.3	19.5	21.4	2.2	3.5	3.9	Strong binding signals							
O=C(N/N=C/c1cc([N+](=O)[O-])ccc1Cl)c1ccc(-c2ccccc2)cc1 [DC-S303]	1.1	2.9						99	90.5	27.1	55.2	52.6	24.6	47.88
